The supplement of paper PMC10627819

Tested on: S. pneumoniae D39V
Experiment: fitness (endpoint OD595 vs no drug) (fraction); higher = more growth
In short: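 At 37 °C, bacteria in TSB, LB Lennox or CY were grown in 384-well plates from a starting OD595 of 0.01. OD595 was measured every 30 min for 14 h, with the first reading used as background. Fitness is the optical density at the switch to stationary phase as a fraction of the robust mean of no-drug control wells, capped at 1.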
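Further: OD595 on entry to stationary phase over no-drug wells; at most 1.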

CN(C)[C@@H]1C(O)=C(C(N)=O)C(=O)[C@@]2(O)C(O)=C3C(=O)c4c(O)ccc(Cl)c4[C@@](C)(O)[C@H]3C[C@@H]12 [Chlortetracycline] + CO[C@H]1/C=C/O[C@@]2(C)Oc3c(C)c(O)c4c(O)c(c(/C=N/N5CCN(C)CC5)c(O)c4c3C2=O)NC(=O)/C(C)=C\C=C\[C@H](C)[C@H](O)[C@@H](C)[C@@H](O)[C@@H](C)[C@H](OC(C)=O)[C@@H]1C [Rifampicin]
fitness, one replicate
Settings | first compound 0.012 µg/mL | first compound 0.024 µg/mL | first compound 0.048 µg/mL
partner 0.025 µg/mL | 0.844 | 0.793 | 0.642
partner 0.2 µg/mL | 0 | 0 | 0

fitness
Settings | first compound 0.012 µg/mL | first compound 0.024 µg/mL | first compound 0.048 µg/mL | first compound 0.375 µg/mL | first compound 0.75 µg/mL | first compound 1.5 µg/mL
partner 0.025 µg/mL | – | – | – | 0.0932 | 0.0627 | 0.0877
partner 0.05 µg/mL | 0.729 | 0.687 | 0.46 | 0.077 | 0.103 | 0.113
partner 0.1 µg/mL | 0.472 | 0.429 | 0.272 | 0.102 | 0.102 | 0.14

CN(C)[C@@H]1C(O)=C(C(N)=O)C(=O)[C@@]2(O)C(O)=C3C(=O)c4c(O)ccc(Cl)c4[C@@](C)(O)[C@H]3C[C@@H]12 [Chlortetracycline] + C[C@@H](O)[C@H]1C(=O)N2C(C(=O)O)=C(SCCNC=N)C[C@H]12 [Imipenem]
fitness
Settings | first compound 0.012 µg/mL | first compound 0.024 µg/mL | first compound 0.048 µg/mL | first compound 0.375 µg/mL | first compound 0.75 µg/mL | first compound 1.5 µg/mL
partner 0.005 µg/mL | – | – | – | 0.0486 | 0.0409 | 0.0284
partner 0.0065 µg/mL | 0.894 | 0.799 | 0.686 | – | – | –
partner 0.01 µg/mL | – | – | – | 0.0501 | 0.0583 | 0.0373
partner 0.013 µg/mL | 0.863 | 0.865 | 0.837 | – | – | –
partner 0.02 µg/mL | – | – | – | 0.0339 | 0.065 | 0.065
partner 0.026 µg/mL | 0.724 | 0.761 | 0.724 | – | – | –

CN(C)[C@@H]1C(O)=C(C(N)=O)C(=O)[C@@]2(O)C(O)=C3C(=O)c4c(O)ccc(Cl)c4[C@@](C)(O)[C@H]3C[C@@H]12 [Chlortetracycline] + Clc1ccc(COC(Cn2ccnc2)c2ccc(Cl)cc2Cl)c(Cl)c1 [Miconazole]
fitness
Settings | first compound 0.012 µg/mL | first compound 0.024 µg/mL | first compound 0.048 µg/mL | first compound 0.375 µg/mL | first compound 0.75 µg/mL | first compound 1.5 µg/mL
partner 1.073 µg/mL | 0.995 | 0.926 | 0.907 | – | – | –
partner 1.25 µg/mL | – | – | – | 0.0819 | 0.0494 | 0.0765
partner 2.145 µg/mL | 0.971 | 0.935 | 0.879 | – | – | –
partner 2.5 µg/mL | – | – | – | 0.104 | 0.0646 | 0.0895
partner 4.29 µg/mL | 0.913 | 0.883 | 0.793 | – | – | –
partner 5 µg/mL | – | – | – | 0.0525 | 0.0422 | 0.0647

CN(C)[C@@H]1C(O)=C(C(N)=O)C(=O)[C@@]2(O)C(O)=C3C(=O)c4c(O)ccc(Cl)c4[C@@](C)(O)[C@H]3C[C@@H]12 [Chlortetracycline] + O=C1CN(/N=C/c2ccc([N+](=O)[O-])o2)C(=O)N1 [Nitrofurantoin]
fitness
Settings | first compound 0.012 µg/mL | first compound 0.024 µg/mL | first compound 0.048 µg/mL | first compound 0.375 µg/mL | first compound 0.75 µg/mL | first compound 1.5 µg/mL
partner 1.285 µg/mL | 0.958 | 0.896 | 0.842 | – | – | –
partner 2 µg/mL | – | – | – | 0.034 | 0.0485 | 0.0311
partner 2.57 µg/mL | 0.96 | 0.951 | 0.836 | – | – | –
partner 4 µg/mL | – | – | – | 0.0275 | 0.0381 | 0.0293
partner 8 µg/mL | – | – | – | 0.0328 | 0.0386 | 0.0233

partner 5.14 µg/mL, one replicate
Settings | fitness
first compound 0.012 µg/mL | 0.862
first compound 0.024 µg/mL | 0.898
first compound 0.048 µg/mL | 0.762

C[C@H]1c2cccc(O)c2C(=O)C2=C(O)[C@]3(O)C(=O)C(C(N)=O)=C(O)[C@@H](N(C)C)[C@@H]3[C@@H](O)[C@@H]21 [Doxycycline] + CO/N=C(\C(=O)N[C@@H]1C(=O)N2C(C(=O)[O-])=C(C[N+]3(C)CCCC3)CS[C@H]12)c1csc(N)n1 [Cefepime]
fitness, one replicate
Settings | first compound 0.003875 µg/mL | first compound 0.00775 µg/mL | first compound 0.031 µg/mL | first compound 0.062 µg/mL
partner 0.0078 µg/mL | ≥ 1 | ≥ 1 | 0.936 | 0.84
partner 0.0155 µg/mL | ≥ 1 | 0.991 | 0.888 | 0.779
partner 0.031 µg/mL | 0.637 | 0.783 | 0.834 | 0.684

fitness
Settings | partner 0.007 µg/mL | partner 0.0078 µg/mL | partner 0.014 µg/mL | partner 0.0155 µg/mL | partner 0.028 µg/mL | partner 0.031 µg/mL
first compound 0.0155 µg/mL | 0.944 | ≥ 1 | 0.934 | 0.974 | 0.858 | 0.882
first compound 0.031 µg/mL | 0.951 | – | 0.938 | – | 0.88 | –

C[C@H]1c2cccc(O)c2C(=O)C2=C(O)[C@]3(O)C(=O)C(C(N)=O)=C(O)[C@@H](N(C)C)[C@@H]3[C@@H](O)[C@@H]21 [Doxycycline] + CO[C@@]12[C@H](COC(N)=O)C3=C(C(=O)C(C)=C(N)C3=O)N1C[C@@H]1N[C@@H]12 [Mitomycin C]
fitness, one replicate
Settings | first compound 0.003875 µg/mL | first compound 0.00775 µg/mL | first compound 0.031 µg/mL | first compound 0.062 µg/mL
partner 0.002 µg/mL | 0.897 | 0.823 | 0.833 | 0.64
partner 0.004 µg/mL | 0.848 | 0.828 | 0.783 | 0.616
partner 0.008 µg/mL | 0.615 | 0.622 | 0.622 | 0.456

fitness
Settings | partner 0.001075 µg/mL | partner 0.002 µg/mL | partner 0.00215 µg/mL | partner 0.004 µg/mL | partner 0.0043 µg/mL | partner 0.008 µg/mL
first compound 0.0155 µg/mL | 0.863 | 0.82 | 0.819 | 0.792 | 0.717 | 0.699
first compound 0.031 µg/mL | 0.816 | – | 0.814 | – | 0.649 | –
first compound 0.062 µg/mL | 0.743 | – | 0.771 | – | 0.63 | –
